{"source": "patent US9499509B2", "about": "“Dihydrochalcone derivatives and their use as antibiotic agents” (UNIVERSITÉ DU QUÉBEC À CHICOUTIMI, priority 2012, dated 2016)", "key": {"MRSA strains": {"tested_on": "MRSA strains", "experiment": "Antibiotic assay (absorption 660 nm, Example 2), MRSA strains", "assay_type": "cell-based, Staphylococcus aureus", "method": "(§1) Antibiotic agents. Gentamicin sulfate was provided by Calbiochem. Chloramphenicol was provided by Sigma-Aldrich.\n(§2) Antibiotic assay. […] The bacteria strains were inoculated in nutrients broth. […] All bacteria were plated in nutrients broth at a concentration of 450 000 bacteria/m L.\n(§3) Compounds IV to XXI were diluted in dimethylsulfoxide. […] The compounds were tested at 8 different concentrations.\n(§4) Each well contained: 100 μL of bacteria, 100 μL of the compounds tested. The plates were incubated at 37° C. for 6 h. The absorption was read using a Varioskan flash multimode Reader™ (Thermo Scientific) at 660 nm.\n(§5) MRSA. Ten (10) strains of MRSA obtained as described above were tested along with an S. aureus wild type (WT) strain (ATCC 25923)."}, "[1]": {"tested_on": "S. aureus wild type strain (ATCC 25923)", "experiment": "Antibiotic assay (absorption 660 nm, Example 2), S. aureus wild type", "assay_type": "cell-based, Staphylococcus aureus", "method": "as §1, §2, §3, §4, §5"}, "WS-1 cell lines": {"tested_on": "WS-1 cell lines", "experiment": "Cytotoxicity assay on WS-1 (Example 2)", "assay_type": "cell-based", "design": "unit not given here", "conditions": "Table 7; WS-1, 48 h", "method": "Cytotoxicity assay. […] The WS-1 cell lines were provided by ATCC. […] The compounds tested were then added at 8 different concentrations. […] In Table 7, the therapeutic indexes of compounds IV to XXI are presented."}, "S. aureus": {"tested_on": "S. aureus", "experiment": "Antibiotic assay (resazurin, Example 1), S. aureus strains of Table 3", "assay_type": "cell-based, Staphylococcus aureus", "conditions": "for IC50: read-out: IC50", "source_text": "(§6) Bacteria Strain. […] The MRSA were obtained as further described below.\n(§7) Antibiotic agents. Cyprofloxacin and erythromycin were provided by Sigma-Aldrich. Gentamicin sulfate and vancomycin hydrochloride were provided by Calbiochem."}, "Streptococcus pneumoniae": {"tested_on": "Streptococcus pneumoniae", "experiment": "Antibiotic assay (resazurin, Example 1), Streptococcus pneumoniae", "assay_type": "cell-based", "conditions": "for IC50: read-out: IC50", "method": "as §6, §7\n(§8) Five additional strains were tested: Streptococcus pneumoniae, Streptococcus agalactiae, Streptococcus pyogenes, Enterococcus faecalis and Corynebacterium jeikeium."}, "Enterococcus faecalis": {"tested_on": "Enterococcus faecalis", "experiment": "Antibiotic assay (resazurin, Example 1), Enterococcus faecalis", "assay_type": "cell-based", "conditions": "for IC50: read-out: IC50", "method": "as §6, §7, §8"}, "Corynebacterium jeikeium": {"tested_on": "Corynebacterium jeikeium", "experiment": "Antibiotic assay (resazurin, Example 1), Corynebacterium jeikeium", "assay_type": "cell-based", "conditions": "Coryne. jeikeium 14139", "method": "as §6, §7, §8"}, "Streptococcus pyogenes": {"tested_on": "Streptococcus pyogenes", "experiment": "Antibiotic assay (resazurin, Example 1), Streptococcus pyogenes", "assay_type": "cell-based", "conditions": "for IC50: read-out: IC50", "method": "as §6, §7, §8"}, "Streptococcus agalactiae": {"tested_on": "Streptococcus agalactiae", "experiment": "Antibiotic assay (resazurin, Example 1), Streptococcus agalactiae", "assay_type": "cell-based", "conditions": "for IC50: read-out: IC50", "method": "as §6, §7, §8"}, "[2]": {"tested_on": "S. aureus wild type strain (ATCC25923)", "experiment": "Antibiotic assay of extracts and fractions (resazurin, Example 6), S. aureus wild type", "assay_type": "cell-based, Staphylococcus aureus", "conditions": "S. aureus WT", "source_text": "(§9) Antibiotic agents. Gentamicin sulfate was provided by Calbiochem."}, "E. coli (ATCC25922)": {"tested_on": "E. coli (ATCC25922)", "experiment": "Antibiotic assay of extracts and fractions (resazurin, Example 6), E. coli", "assay_type": "cell-based", "source_text": "as §9"}, "MRSAs (1, 2 and 3)": {"tested_on": "MRSAs (1, 2 and 3)", "experiment": "Antibiotic assay of extracts and fractions (resazurin, Example 6), MRSA 1, 2 and 3", "assay_type": "cell-based, Staphylococcus aureus", "source_text": "as §9"}, "S. epidermidis": {"tested_on": "S. epidermidis", "experiment": "Antibiotic assay (resazurin, Example 1), S. epidermidis strains", "protocol": "The antibiotic assays were performed in 96-well plates (BD Falcon). The bacteria strains were inoculated in Nutrient Broth (BD) for the gram negative bacteria and Tryptic soy broth (BD) with 10% of defibrinated sheep blood (PML microbiological) for gram positive strain. All bacteria strains were dosed by spectrophotometry at 660 nm where 1 D.O=2×10^8 bacteria/mL. All bacteria were plated in their respective broth at a concentration of 450 000 bacteria/mL.\nCompounds I, II and III were diluted in methanol and the above-noted antibiotic agents were diluted in water. The solvent concentration was 0.25%, which was not toxic for the bacteria. Compounds I, II and III and the above-noted antibiotic agents were tested at 8 different concentrations.\nEach well contained: 100 μL of bacteria, 50 μL of the compounds tested (compound I, II, III or the above-noted antibiotic agent) and 50 μL of a 4% resazurin (Sigma) solution. The plates were incubated at 37° C. for 5 h. The fluorescence was read using a Fluoroskan Ascent™ FL (thermo) using an excitation wavelength of 530 nm and an emission wavelength of 590 nm.\nTwo different strains of Staphylococcus were tested, namely the S. epidermidis and the S. aureus strains."}}, "note": "Where two headings read alike, the source gives them in different places."}
{"compound": "COc1ccc(CCC(=O)c2c(O)cc(O)c3c2OC(c2ccc(O)cc2)C(O)C3)cc1", "note": "(stereo not shown) [XX]", "values": [{"measurement": "MIC", "setting": "MRSA strains; MRSA 1", "result": "14 ± 1", "unit": "µM"}, {"measurement": "MIC", "setting": "MRSA strains; MRSA 2", "result": "11.4 ± 0.5", "unit": "µM"}, {"measurement": "MIC", "setting": "MRSA strains; MRSA 3", "result": "8.9 ± 0.3", "unit": "µM"}, {"measurement": "MIC", "setting": "MRSA strains; MRSA 4", "result": "7.6 ± 0.2", "unit": "µM"}, {"measurement": "MIC", "setting": "MRSA strains; MRSA 5", "result": "3.8 ± 0.3", "unit": "µM"}, {"measurement": "MIC", "setting": "MRSA strains; MRSA 6", "result": "11.2 ± 1.0", "unit": "µM"}, {"measurement": "MIC", "setting": "MRSA strains; MRSA 7", "result": "12.1 ± 0.7", "unit": "µM"}, {"measurement": "MIC", "setting": "MRSA strains; MRSA 8", "result": "7.0 ± 1.0", "unit": "µM"}, {"measurement": "MIC", "setting": "MRSA strains; MRSA 9", "result": "12 ± 1", "unit": "µM"}, {"measurement": "MIC", "setting": "MRSA strains; MRSA 10", "result": "12.6 ± 0.3", "unit": "µM"}, {"measurement": "MIC", "setting": "[1]; S. aureus WT (ATCC 25923)", "result": "14.0 ± 0.8", "unit": "µM"}, {"measurement": "S. aureus WT ATCC 25923 (toxicity on bacteria)", "setting": "[1]; Table 7, same values as MIC of Table 6", "result": "14.0 ± 0.8"}, {"measurement": "WS-1 (toxicity on normal cells, fibroblast)", "setting": "WS-1 cell lines", "result": ">50"}]}
{"compound": "Gentamicin sulfate [reference compound]", "values": [{"measurement": "Minimum Inhibitory Concentration (MIC)", "setting": "S. aureus; S. aureus 14094", "result": "(0.04) μM"}, {"measurement": "IC50", "setting": "S. aureus; S. aureus 14094", "result": "< 0.006", "unit": "µM"}, {"measurement": "Minimum Inhibitory Concentration (MIC)", "setting": "S. aureus; S. aureus 14108", "result": "(0.05) μM"}, {"measurement": "IC50", "setting": "S. aureus; S. aureus 14108", "result": "0.016 ± 0.003", "unit": "µM"}, {"measurement": "Minimum Inhibitory Concentration (MIC)", "setting": "S. aureus; S. aureus 14118", "result": "(0.02) μM"}, {"measurement": "IC50", "setting": "S. aureus; S. aureus 14118", "result": "0.008 ± 0.001", "unit": "µM"}, {"measurement": "Minimum Inhibitory Concentration (MIC)", "setting": "S. aureus; S. aureus 14154", "result": "(0.04) μM"}, {"measurement": "IC50", "setting": "S. aureus; S. aureus 14154", "result": "< 0.016", "unit": "µM"}, {"measurement": "Minimum Inhibitory Concentration (MIC)", "setting": "Streptococcus pneumoniae; Strep. pneumoniae 14070", "result": "(>20) μM"}, {"measurement": "IC50", "setting": "Streptococcus pneumoniae; Strep. pneumoniae 14070", "result": "4 ± 2", "unit": "µM"}, {"measurement": "Minimum Inhibitory Concentration (MIC)", "setting": "Streptococcus pneumoniae; Strep. pneumoniae 14112", "result": "(>20) μM"}, {"measurement": "IC50", "setting": "Streptococcus pneumoniae; Strep. pneumoniae 14112", "result": "> 20", "unit": "µM"}, {"measurement": "Minimum Inhibitory Concentration (MIC)", "setting": "Streptococcus pneumoniae; Strep. pneumoniae 14138", "result": "(>20) μM"}, {"measurement": "IC50", "setting": "Streptococcus pneumoniae; Strep. pneumoniae 14138", "result": "> 20", "unit": "µM"}, {"measurement": "Minimum Inhibitory Concentration (MIC)", "setting": "Streptococcus pneumoniae; Strep. pneumoniae 14144", "result": "(>20) μM"}, {"measurement": "IC50", "setting": "Streptococcus pneumoniae; Strep. pneumoniae 14144", "result": "> 20", "unit": "µM"}, {"measurement": "Minimum Inhibitory Concentration (MIC)", "setting": "Streptococcus pneumoniae; Strep. pneumoniae 14148", "result": "(>20) μM"}, {"measurement": "IC50", "setting": "Streptococcus pneumoniae; Strep. pneumoniae 14148", "result": "> 20", "unit": "µM"}, {"measurement": "Minimum Inhibitory Concentration (MIC)", "setting": "Enterococcus faecalis; Ent. Faecalis 14078", "result": "(>20) μM"}, {"measurement": "IC50", "setting": "Enterococcus faecalis; Ent. Faecalis 14078", "result": "11 ± 1", "unit": "µM"}, {"measurement": "Minimum Inhibitory Concentration (MIC)", "setting": "Enterococcus faecalis; Ent. Faecalis 14115", "result": "(>20) μM"}, {"measurement": "IC50", "setting": "Enterococcus faecalis; Ent. Faecalis 14115", "result": "> 20", "unit": "µM"}, {"measurement": "Minimum Inhibitory Concentration (MIC)", "setting": "Corynebacterium jeikeium", "result": "(9.1) μM"}, {"measurement": "IC50", "setting": "Corynebacterium jeikeium; read-out: IC50", "result": "0.92 ± 0.07", "unit": "µM"}, {"measurement": "Minimum Inhibitory Concentration (MIC)", "setting": "Streptococcus pyogenes; Strep. pyogenes 14149", "result": "(>20) μM"}, {"measurement": "IC50", "setting": "Streptococcus pyogenes; Strep. pyogenes 14149", "result": "> 20", "unit": "µM"}, {"measurement": "Minimum Inhibitory Concentration (MIC)", "setting": "Streptococcus pyogenes; Strep. pyogenes 14152", "result": "(>20) μM"}, {"measurement": "IC50", "setting": "Streptococcus pyogenes; Strep. pyogenes 14152", "result": "> 20", "unit": "µM"}, {"measurement": "Minimum Inhibitory Concentration (MIC)", "setting": "Streptococcus agalactiae; Strep. agalactiae 14150", "result": "(>20) μM"}, {"measurement": "IC50", "setting": "Streptococcus agalactiae; Strep. agalactiae 14150", "result": "> 20", "unit": "µM"}, {"measurement": "Minimum Inhibitory Concentration (MIC)", "setting": "Streptococcus agalactiae; Strep. agalactiae 14151", "result": "(>20) μM"}, {"measurement": "IC50", "setting": "Streptococcus agalactiae; Strep. agalactiae 14151", "result": "> 20", "unit": "µM"}, {"measurement": "Minimum Inhibitory Concentration (MIC)", "setting": "Streptococcus agalactiae; Strep. agalactiae 14153", "result": "(>20) μM"}, {"measurement": "IC50", "setting": "Streptococcus agalactiae; Strep. agalactiae 14153", "result": "> 20", "unit": "µM"}, {"measurement": "IC50", "setting": "[2]", "result": "<5", "unit": "ng/mL"}, {"measurement": "MIC", "setting": "[2]", "result": "<5", "unit": "ng/mL"}, {"measurement": "IC50", "setting": "E. coli (ATCC25922)", "result": "9 ± 1", "unit": "ng/mL"}, {"measurement": "MIC", "setting": "E. coli (ATCC25922)", "result": 19, "unit": "ng/mL"}, {"measurement": "IC50", "setting": "MRSAs (1, 2 and 3); MRSA 1", "result": "<5", "unit": "ng/mL"}, {"measurement": "MIC", "setting": "MRSAs (1, 2 and 3); MRSA 1", "result": "<5", "unit": "ng/mL"}, {"measurement": "IC50", "setting": "MRSAs (1, 2 and 3); MRSA 2", "result": "<5", "unit": "ng/mL"}, {"measurement": "MIC", "setting": "MRSAs (1, 2 and 3); MRSA 2", "result": "<5", "unit": "ng/mL"}, {"measurement": "IC50", "setting": "MRSAs (1, 2 and 3); MRSA 3", "result": "6 ± 0.4", "unit": "ng/mL"}, {"measurement": "MIC", "setting": "MRSAs (1, 2 and 3); MRSA 3", "result": 19, "unit": "ng/mL"}, {"measurement": "IC50", "setting": "S. epidermidis; S. epidermidis 14069", "result": "< 0.006", "unit": "µM"}, {"measurement": "Minimum Inhibitory Concentration (MIC)", "setting": "S. epidermidis; S. epidermidis 14069", "result": "(2.51) μM"}, {"measurement": "IC50", "setting": "S. epidermidis; S. epidermidis 14085", "result": "< 0.006", "unit": "µM"}, {"measurement": "Minimum Inhibitory Concentration (MIC)", "setting": "S. epidermidis; S. epidermidis 14085", "result": "(1.19) μM"}, {"measurement": "IC50", "setting": "S. epidermidis; S. epidermidis 14093", "result": "< 0.006", "unit": "µM"}, {"measurement": "Minimum Inhibitory Concentration (MIC)", "setting": "S. epidermidis; S. epidermidis 14093", "result": "(1.25) μM"}, {"measurement": "IC50", "setting": "S. epidermidis; S. epidermidis 14134", "result": "0.13 ± 0.01", "unit": "µM"}, {"measurement": "Minimum Inhibitory Concentration (MIC)", "setting": "S. epidermidis; S. epidermidis 14134", "result": "(0.8) μM"}, {"measurement": "IC50", "setting": "S. epidermidis; S. epidermidis 14143", "result": "0.2 ± 0.03", "unit": "µM"}, {"measurement": "Minimum Inhibitory Concentration (MIC)", "setting": "S. epidermidis; S. epidermidis 14143", "result": "(>2) μM"}]}
